Data as given in BigSolDB 2.1.

CC[C@H](C)[C@H]1O[C@]2(CC[C@@H]1C)C[C@@H]1C[C@@H](C/C=C(\C)[C@@H](O[C@H]3C[C@H](OC)[C@@H](O[C@H]4C[C@H](OC)[C@@H](O)[C@H](C)O4)[C@H](C)O3)[C@@H](C)/C=C/C=C3\CO[C@@H]4[C@H](O)C(C)=C[C@@H](C(=O)O1)[C@]34O)O2
solubility (mole fraction)
Settings | 293.2 K | 298.2 K | 303.2 K | 308.2 K | 313.2 K
in isopropanol | 0.0675 | 0.0823 | 0.0915 | 0.0967 | 0.106
in n-propanol | 0.089 | 0.105 | 0.115 | 0.122 | 0.136
in water | 5.1e-06 | 5.6e-06 | 6.1e-06 | 6.5e-06 | 6.9e-06
